In patent US20250114313A1, “OLIGO-BENZAMIDE ANALOGS AND THEIR USE IN CANCER TREATMENT” (BOARD OF REGENTS, THE UNIVERSITY OF TEXAS SYSTEM, priority 2022, published 2025):
Entries after “also recorded” stand apart in the source; their conditions may differ. Read-outs that look alike come from different tables or passages of the source. Values belong to the molecule of their own block, whether it stands above or below them.

What was measured:
[1] = system: ERα-positive breast cancer cells (MCF-7, ZR-75); conditions: therapy-sensitive and therapy-resistant ERα-positive breast cancers; inventors' previous work; read-out: IC50, block of ERα signaling and ERα-driven proliferation; cited from earlier work
[2] = biological target: T1, ER Alpha-LBD (GST) (Homo sapiens, UniProt P03372); test: LanthaScreen TR-FRET ER alpha Coactivator Assay, antagonist mode; type: binding; conditions: 2 h incubation
T1 construct: 3.5 nM ER Alpha-LBD (GST); purchased life technologies A15885
T1 sequence (P03372 311-547 limits assumed): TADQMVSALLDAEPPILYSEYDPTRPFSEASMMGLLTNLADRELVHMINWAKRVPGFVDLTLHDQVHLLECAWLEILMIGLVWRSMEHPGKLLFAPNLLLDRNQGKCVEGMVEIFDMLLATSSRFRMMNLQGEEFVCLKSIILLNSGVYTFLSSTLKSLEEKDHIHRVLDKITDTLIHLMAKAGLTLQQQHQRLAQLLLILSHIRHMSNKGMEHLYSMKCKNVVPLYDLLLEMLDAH

[3] = earlier finding; cited from earlier work
[4] = system: ERα-positive breast cancer cells (MCF-7, ZR-75); test: MTT cell viability, ERα-positive breast cancer cells; type: cell-based, Human; conditions: MCF-7 and ZR-75, read-out: anti-proliferative IC50
Description: (§1) Cell viability assays: Cells were seeded in 96-well plates (2×10^3 cells/well) one day before the treatment. Cells were treated with varying concentrations of ERX-41 or ERX-11 analogs for 3-6 days. Then effects of ERX-41 or ERX-11 analogs on cell viability were measured in triplicate or sextuplicate with multiple biological replicates using the WST-1 (Promega), MTT as previously described^33 or CellTiter-Glo 2.0 (Promega) assays.

[5] = system: TNBC cells (SUM-159, MDA-MB-231); test: MTT cell viability, TNBC cells; type: cell-based, Human
Description: as §1

[6] = system: ovarian cancer cells and breast cancer cells; test: ERX-315 in cancer cell lines; type: cell-based
[7] = ERX-315 in syngeneic D2A1 tumor model, organ evaluation; type: in vivo, mice; conditions: syngeneic D2A1 tumors
[8] = system: BC xenografts expressing the Y537S ERα mutant (ZR75, MCF7); test: ERX-315 in therapy resistant BC xenografts (Y537S ERα mutant ZR75, MCF7); type: in vivo, mouse
[9] = biological target: T2, LAL lipase activity (Homo sapiens, UniProt P38571); test: Lipase activity assay (4-MUP), SUM-159 cell lysate; type: biochemical
T2 construct: heat stability of LAL or vinculin protein in SUM-159 cells; endogenous in cells; host or cells: SUM-159
T2 sequence (P38571 77-399): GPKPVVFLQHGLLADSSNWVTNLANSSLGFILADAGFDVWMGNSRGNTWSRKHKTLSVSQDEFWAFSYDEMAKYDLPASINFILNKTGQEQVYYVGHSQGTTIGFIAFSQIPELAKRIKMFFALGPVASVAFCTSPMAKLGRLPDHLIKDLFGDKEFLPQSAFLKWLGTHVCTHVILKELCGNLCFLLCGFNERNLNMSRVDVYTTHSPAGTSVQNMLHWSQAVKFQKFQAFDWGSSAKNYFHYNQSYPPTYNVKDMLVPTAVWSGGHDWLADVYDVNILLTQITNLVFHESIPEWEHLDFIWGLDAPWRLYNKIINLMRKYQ
Description: Lipase activity assay: Lipase activity assays were performed as described previously (Dairaku, et al)^37. Briefly, a 0.345 mM substrate solution was prepared from 1.2 mL of 13.3 mM 4-MUP and 42 mL of 100 mM sodium acetate buffer pH 4.0, 1.0% (v/v) Triton X-100 and 3.0 mL of 0.5% (w/v) cardiolipin. For the enzyme reaction, 50 μL of the substrate in buffer solution, 40 μL of diluted cell lysate and 10 μL of DMSO or 30 μM Lalistat2 or 30 μM ERX-41 were combined in a black 96-well plate. The plates were sealed with an adhesive aluminum film and incubated in a 37° C. incubator for 1 h. The reactions were terminated using 200 μL of 150 mM EDTA at pH 11.5. The fluorescence of the plates were read immediately with synergy H1 fluorescence microplate reader (BioTek) using a 365-nm excitation filter and a 450-nm emission filter. The LIPA lipase activity was calculated by subtracting the enzymatic activity of the inhibited (with Lalistat2) reaction from that of the uninhibited (without Lalistat2) reaction.

[10] = system: TNBC; test: ER stress, cell death and lysosomes in TNBC (discussion, no method); type: cell-based
[11] = system: SUM-159 cells with LIPA KO; test: UPR induction and protein synthesis in SUM-159 cells with LIPA KO (RNA-seq, RT-qPCR, western); type: cell-based, Human; conditions: known ER stress inducers
Description: Western blotting: Whole cell lysates from breast cancer cells were prepared with 2× sample buffer (60 mM Tris-HCl, pH 6.8, 2% sodium dodecyl sulfate, 10% glycerol), and before loading mixed with loading buffer (5% 2-mercaptoethanol, 0.1% bromophenol blue) and boiled for denaturation, as previously described.^33 Proteins were separated by SDS-PAGE and subjected to Western analysis using antibodies. To detect nascent translated proteins, puromycin (final concentration 10 μg/mL) was added into cell plates 30 minutes before harvesting cells. Then samples were subjected to the Western blotting. Nascent proteins were detected by anti-puromycin antibody.
Real-time quantitative PCR (RT-qPCR): Total RNA was prepared from breast cancer cells using the RNeasy Mini Kit (Qiagen) according to the manufacturer protocols. Subsequently, total RNAs were reverse transcribed into cDNA using iScript Reverse Transcription Supermix (Bio-rad) and by using SYBR Green on an Illumina Real-Time PCR system.
RNA-sequencing: mRNA-seq sequencing library construction was performed using TruSeq RNA Library Preparation Kit (Illumina) according to the manufacturer's instructions. FASTQ reads from Genomics Core at UTSW were mapped to Human GRCh38 genome using HiSAT2 (RRID:SCR_015530). Differential expression analysis is performed using DEseq2 (RRID:SCR_015687). Abundances of transcripts are calculated using ballgown (Frazee et al. 2014). The values of Fragments Per Kilobase of transcript per Million mapped reads (FPKM) were used for Gene Set Enrichment Analysis (GSEA). GSEA was performed by using the GSEA software (RRID:SCR_005724) and C5 ontology gene sets (14765 gene sets in total). mRNA-seq data from this study are available from NCBI GEO under accession #GSE168800.

Molecule: O=C(Oc1nsnc1N1CCCCC1)N1CCCCC1 [Lalistat 2]
- lipase function (other lipases) in LIPA-KO cells ([9]; LIPA-KO cells): lack of inhibitory activity on lipase function
- lipase activity of LIPA ([9]; SUM-159 cells, 30 μM): attenuated lipase activity
- induction of ER stress or cell death in TNBC [10]: does not induce ER stress or cell death in TNBC

Molecule: C[C@]12CC[C@@H]3c4ccc(O)cc4C[C@@H](CCCCCCCCC[S+]([O-])CCCC(F)(F)C(F)(F)F)[C@H]3[C@@H]1CC[C@@H]2O (stereo partly drawn) [fulvestrant]
- interaction with ERα LBD [2]: interact with ERG LBD

Molecule: C/C=C(/C)C(=O)O[C@H]1C(C)=C2[C@H]([C@@H]1OC(=O)CCCCCCC)[C@@](C)(OC(C)=O)C[C@H](OC(=O)CCC)[C@@]1(O)[C@H]2OC(=O)[C@@]1(C)O [thapsigargin, reference compound]
- inducibility of UPR genes in LIPA KO cells [11]: preserved

Molecule: tunicamycin [reference compound]
- inducibility of UPR genes in LIPA KO cells [11]: preserved

Now from value to molecule, other results behind:

- interaction with ERα LBD [2]: interact with ERG LBD
- IC50 [4]: 0.2 to 0.5 µM
- IC50 ([5]; MTT, SUM-159 and MDA-MB-231, read-out: IC50 against TNBC cells): > 10 µM
Molecule: CC(C)COc1cc(C(N)=O)ccc1NC(=O)c1ccc(NC(=O)c2ccc([N+](=O)[O-])c(OCCO)c2)c(OCC(C)C)c1 [ERX-11, reference compound]
- IC50 [1]: 0.2 to 0.5 µM
- oral bioavailability [3]: orally bioavailable
- anti-tumor activity in TNBC cells ([5]; TNBC cells (lack expression of ERα)): did not show anti-tumor activity

- IC50 ([6]; read-out: IC50 against ovarian cancer cells and breast cancer cells): 0.01 to 0.05 µM
- immunogenicity, immune infiltrates in spleen, lymph nodes, kidney, liver [7]: not immunogenic
Molecule: CC(C)COc1cc(C(=O)Nc2ccc(C(=O)N[C@H]3CC[C@H](C(=O)Nc4cnc5ccccc5c4)CC3)cc2OCC(C)C)ccc1NC(=O)c1ccc(F)c(OCCO)c1 [ERX-315]
- effectiveness in cell culture models of cancer ([6]; FIG. 17): effective in each cell line tested
- Ki67 proliferation indices of tumors ([8]; histologic evaluation): dramatically decreased K167 proliferation indices
- activity against therapy resistant BC xenografts ([8]; oral, captisol formulation, listed as TK315): decreased the growth and tumor weight; also recorded: potent activity
- mouse liver or body weight ([8]; oral, listed as TK315): No change in body weight; also recorded: no effect on mouse liver or body weight
